The text below walks through data of ChEMBL document CHEMBL1201862, “PubChem BioAssay data set” (2004).

Test systems include A498; COLO 205; HCC 2998; HL-60; IGROV-1; LOX IMVI; M14; MOLT-4; Malme-3M; NCI-H23; NCI-H460; RPMI-8226; SK-MEL-28; SK-MEL-5; SNB-19; SW-620; UACC-62; MCF7; MDA-MB-435; MDA-N.
Common to all, as to test: growth of human tumour cells (NCI), 48 h

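96-well plates; 48 h exposure; 5 concentrations. Endpoints by linear interpolation between flanking doses. Not reached: highest tested concentration assigned. Abbreviation: GI50, concentration required for 50% inhibition of growth.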 Active and inactive are the calls of the source. No stated cut-off is given here; in the data, active = GI50 up to about 1.1 µM and inactive = higher. Bounds are passed on as bounds.

Take `C[Si](C)(C)C1(Sc2ccccc2)SCCCS1`: the GI50 in the test with A498 is 40.6 µM (inactive); in the test on COLO 205, 41.5 µM (inactive); with HCC 2998 it was 31.5 µM (inactive); in the test with HL-60 it was 12 µM (inactive); in the test on IGROV-1, 41.8 µM (inactive); with LOX IMVI it was 31.6 µM (inactive). The GI50 with M14 was 49.8 µM (inactive); in the test on MOLT-4 it was 15.1 µM (inactive); with Malme-3M it was 70.6 µM (inactive); in the test on NCI-H23 it was 31.6 µM (inactive); with NCI-H460 it was 52.8 µM (inactive); in the test with RPMI-8226, 24.6 µM (inactive). For the same compound, the GI50 in the test on SK-MEL-28 was 43.3 µM (inactive); with SK-MEL-5, 72.9 µM (inactive); with SNB-19 it was 36.9 µM (inactive); with SW-620, 53.1 µM (inactive); in the test with UACC-62, 35 µM (inactive).

Regarding `CCOC(=O)C(NC(=O)c1cccc(Cl)c1)(Nc1ccc(S(=O)(=O)Nc2cc(C)nc(C)n2)cc1)C(F)(F)F` (centres undefined), the GI50 with A498, in the test with COLO 205, in the test on HCC 2998, with HL-60, in the test with IGROV-1 and in the test with LOX IMVI was > 100 µM (inactive) throughout. Also, the GI50 with M14, with MCF7, in the test with MDA-MB-435, in the test with MOLT-4, in the test on Malme-3M and in the test with NCI-H23 was > 100 µM (inactive) each time. Also, the GI50 with NCI-H460, with RPMI-8226, in the test on SK-MEL-28, with SK-MEL-5, in the test on SNB-19 and with SW-620 was > 100 µM (inactive) each time.

On to `CCOC(=O)c1cc2c(OC(C)=O)ccc(OC(C)=O)c2s1`, for which the GI50 in the test on A498 was 5.28 µM (inactive); in the test on COLO 205, 2.17 µM (inactive); with HCC 2998, 8.97 µM (inactive); in the test on HL-60, 0.845 µM (active); in the test with IGROV-1 it was 1.76 µM (inactive); with LOX IMVI it was 0.891 µM (active). Further, the GI50 is 1.77 µM (inactive) in the test with M14; 3.03 µM (inactive) in the test with MCF7; 2.67 µM (inactive) in the test with MDA-MB-435; 2.58 µM (inactive) in the test on MOLT-4; 1.93 µM (inactive) in the test with Malme-3M; 1.99 µM (inactive) in the test on NCI-H23. Besides, the GI50 was 5.65 µM (inactive) in the test on NCI-H460; 2.31 µM (inactive) with RPMI-8226; 2.15 µM (inactive) with SK-MEL-28; 2.29 µM (inactive) with SK-MEL-5; 7.03 µM (inactive) with SNB-19; 2.1 µM (inactive) in the test with SW-620. The GI50 in the test on UACC-62 was 1.82 µM (inactive).

As for `CC(C)(C)C(=O)O[C@H]1C=C[C@@H](O)[C@@H]2[C@H]1[C@@H]1C=C[C@H]2C1`, the GI50 in the test with A498 was 20.3 µM (inactive); in the test with COLO 205 it was 6.03 µM (inactive); in the test on HCC 2998, 14.9 µM (inactive); with HL-60 it was 4.15 µM (inactive); with IGROV-1, 3.06 µM (inactive); in the test on LOX IMVI, 21.4 µM (inactive). For the same compound, the GI50 in the test on M14 is 13.7 µM (inactive); with MCF7, 7.18 µM (inactive); in the test with MDA-N, 19.3 µM (inactive); in the test with MOLT-4, 13.4 µM (inactive); with Malme-3M it was > 10 µM (inactive); in the test with NCI-H23 it was 12.1 µM (inactive). Also, the GI50 was 53.8 µM (inactive) in the test with NCI-H460; 17.1 µM (inactive) with RPMI-8226; 18.5 µM (inactive) with SK-MEL-28; 70 µM (inactive) in the test on SNB-19; 42.7 µM (inactive) in the test with SW-620; 9.79 µM (inactive) in the test with UACC-62.

In the case of `CCN(CC)CC(C)C(=O)/C=C/c1ccc(C)cc1` (centres undefined), the GI50 was 4.74 µM (inactive) in the test with A498; 1.55 µM (inactive) in the test on COLO 205; 3.13 µM (inactive) in the test on HCC 2998; 3.48 µM (inactive) in the test on HL-60; 2.2 µM (inactive) in the test on IGROV-1; 1.29 µM (inactive) with LOX IMVI. Further, the GI50 with M14 was 2.2 µM (inactive); in the test on MOLT-4, 2.52 µM (inactive); with Malme-3M, 2.81 µM (inactive); in the test on NCI-H23, 6.31 µM (inactive); in the test with NCI-H460, 4.83 µM (inactive); with RPMI-8226 it was 1.64 µM (inactive). For the same compound, the GI50 with SK-MEL-28 is 1.85 µM (inactive); in the test on SK-MEL-5 it was 5.02 µM (inactive); in the test on SNB-19 it was 16.7 µM (inactive); in the test with SW-620, 1.57 µM (inactive); in the test with UACC-62, 3.3 µM (inactive).

`CCCCCc1cc(OC(=O)c2c(O)cc(OC)cc2CCCCC)cc(O)c1C(=O)O`: the GI50 in the test with A498 is 19.8 µM (inactive); in the test with COLO 205, 18.2 µM (inactive); in the test on HCC 2998, 15.3 µM (inactive); with HL-60, 24.9 µM (inactive); in the test on IGROV-1, 16.6 µM (inactive); with LOX IMVI, 17.7 µM (inactive). The GI50 in the test with M14 is 20.4 µM (inactive); in the test on MOLT-4, 23.5 µM (inactive); in the test on Malme-3M it was 13 µM (inactive); in the test with NCI-H23, 12.4 µM (inactive); with NCI-H460, 15.9 µM (inactive); in the test on RPMI-8226 it was 14.5 µM (inactive). Besides, the GI50 in the test on SK-MEL-28 is 17.1 µM (inactive); in the test on SK-MEL-5, 14.8 µM (inactive); in the test on SNB-19, 12.7 µM (inactive); in the test on SW-620, 18.3 µM (inactive); in the test on UACC-62 it was 14.5 µM (inactive).

Regarding `CCSCN(C)c1nc(N(C)C)nc(N(C)C)n1`, the GI50 is 47.8 µM (inactive) in the test with A498; 75.2 µM (inactive) in the test with COLO 205; > 100 µM (inactive) in the test with HCC 2998; 29.9 µM (inactive) in the test with HL-60; 78.7 µM (inactive) in the test with IGROV-1; 41.3 µM (inactive) in the test on LOX IMVI. In addition, the GI50 in the test on M14 is 39.8 µM (inactive); in the test with MOLT-4, 46.8 µM (inactive); in the test with Malme-3M it was 34.3 µM (inactive); with NCI-H23 it was 33.6 µM (inactive); with NCI-H460, 39.8 µM (inactive); in the test with RPMI-8226, 49.1 µM (inactive). For the same compound, the GI50 in the test with SK-MEL-28 is 56.4 µM (inactive); in the test on SK-MEL-5, 39.9 µM (inactive); with SNB-19, 78 µM (inactive); in the test on SW-620 it was 35.9 µM (inactive); in the test with UACC-62 it was 40.4 µM (inactive).

Regarding `COC(=O)[C@@H](O)[C@]1(C(=O)OC)C2O[C@@H](OC)[C@@H]1CCCCCC[C@H]2O`, the GI50 with COLO 205, in the test on HCC 2998, in the test on IGROV-1, with LOX IMVI, in the test with M14 and with MDA-MB-435 was > 100 µM (inactive) each time. The GI50 in the test on MDA-N, with MOLT-4, in the test on Malme-3M, in the test on NCI-H23, in the test with NCI-H460 and with RPMI-8226 was > 100 µM (inactive) throughout. Also, the GI50 in the test on SK-MEL-28, in the test with SK-MEL-5, in the test on SNB-19, in the test on SW-620 and with UACC-62 was > 100 µM (inactive) each time.

Turning to `CN(C)CCOC1(Cc2ccc(Cl)cc2Cl)CCC(C(C)(C)C)CC1` (centres undefined), the GI50 is 1.83 µM (inactive) with A498; 1.56 µM (inactive) with COLO 205; 1.57 µM (inactive) in the test with HCC 2998; 1.83 µM (inactive) in the test with IGROV-1; 1.78 µM (inactive) in the test with LOX IMVI; 1.54 µM (inactive) with M14. Moreover, the GI50 in the test with MCF7 was 2.19 µM (inactive); with MDA-MB-435, 1.64 µM (inactive); with MOLT-4, 1.85 µM (inactive); in the test on Malme-3M, 1.73 µM (inactive); in the test on NCI-H23 it was 1.91 µM (inactive); in the test with NCI-H460 it was < 0.01 µM (active). Also, the GI50 in the test on RPMI-8226 is 1.6 µM (inactive); with SK-MEL-28, 1.47 µM (inactive); in the test on SK-MEL-5 it was 2.36 µM (inactive); in the test on SNB-19, 2.22 µM (inactive); with SW-620, 2.4 µM (inactive); in the test with UACC-62, 7.23 µM (inactive).

For `CO[C@H]1[C@@H](O)[C@@H](O)O[C@@H](O[C@H]2CC[C@@]3(C)[C@H](CC[C@@H]4[C@@H]3[C@H](O)C[C@]3(C)[C@@H](C5=CC(=O)OC5)CC[C@]43O)C2)[C@@H]1O`, the GI50 in the test with A498 was 0.184 µM (active); in the test on COLO 205, 0.441 µM (active); in the test on HCC 2998, 1.67 µM (inactive); with HL-60 it was 0.191 µM (active); in the test on IGROV-1, 0.301 µM (active); in the test with LOX IMVI it was 0.193 µM (active). Further, the GI50 with M14 is 0.283 µM (active); in the test with MDA-MB-435 it was 0.28 µM (active); with MDA-N, 0.243 µM (active); with MOLT-4, 0.0304 µM (active); in the test with Malme-3M it was 0.198 µM (active); in the test with NCI-H23 it was 0.113 µM (active). Also, the GI50 is 0.0895 µM (active) with NCI-H460; 0.198 µM (active) in the test on RPMI-8226; 0.622 µM (active) in the test with SK-MEL-28; 0.136 µM (active) in the test with SK-MEL-5; 0.692 µM (active) in the test with SNB-19; 0.257 µM (active) in the test on SW-620. Also, the GI50 with UACC-62 was 0.355 µM (active).

With `CC(CC(C)(C)[N+](C)(C)C)[N+](C)(C)C` (centres undefined), the GI50 in the test on COLO 205, in the test on HCC 2998, in the test with HL-60, with IGROV-1, with M14 and with MCF7 was > 100 µM (inactive) throughout. The GI50 with MDA-N was > 100 µM (inactive); in the test on MOLT-4, > 100 µM (inactive); in the test with Malme-3M it was > 10 µM (inactive); in the test with NCI-H23, > 100 µM (inactive); with NCI-H460, > 100 µM (inactive); in the test on RPMI-8226 it was > 100 µM (inactive). Moreover, the GI50 in the test with SK-MEL-28, in the test with SK-MEL-5, in the test on SNB-19, in the test on SW-620 and in the test on UACC-62 was > 100 µM (inactive) throughout.
